Measurements: patent publication US9243247B2, “Composition for promoting apoptosis or inhibiting cell growth, comprising epstein-barr virus microrna” (Catholic University Industry Academic Cooperation Foundation, priority 2011, dated 2016)
“Also recorded” adds a separate entry of the source.

Assays:
Format in all cases: cell-based
TAX1BP1 mRNA = TAX1BP1 mRNA level by QRT-PCR; conditions: AGS; after transfection; listed as miR-BART15-3p
Description: miR-BART15-3p was transfected to AGS by using lipofectamine-2000. Forty eight hours after the transfection, the cells were harvested and a QRT-PCR and a Western blotting were performed (FIGS. 12A and 12B). The BIRC6 mRNA level was not changed in the AGS to which miR-BART15-3p was transfected, while the protein level was decreased.
Different from BIRC6, the mRNA level of TAX1BP1 was decreased in the AGS to which miR-BART15-3p was transfected (FIG. 12E).

3′UTR of BIRC6 = test: Dual luciferase reporter assay (psiCHECK) in HEK293T, BIRC6 3'UTR; conditions: for renilla value: 48 hours
Text: (§1) For an miRNA target test, to psiCHECK, which is a luciferase vector (FIG. 9) specially designed for an miRNA target test including a firefly gene and a renilla gene in the same vector, a 3′UTR of the five genes shown in Table 5, which might be targeted by miR-BART15-3p, was individually cloned to prepare a vector for a target test for each of the genes.
(§2) HEK293T was divided into a 96-well plate such that 5×10^3 cells were allocated to each well, and miR-BART15-3p and a vector for a target test were transfected by using lipofectamine2000. Forty eight hours after the transfection, a dual luciferase reporter assay (Virology. 412(2), 392-400 (2011)) was performed to normalize the results with reference to firefly luciferase and observe a variation of the renilla luciferase gene expression. […] The renilla value was not decreased by […] which was formed by mutating a seed part of miR-BART15-3p (FIG. 10).
BIRC6 3′UTR included two target sites which might be hybridized with miR-BART15-3p. To verify whether these two sites are directly targeted by miR-BART15-3p, a point mutation was performed at a psiC-BIRC6 site which was seed-matched with miR-BART15-3p to prepare psiC-BIRC6m1 and psiC-BIRC6m2. Both of the sites were mutated to prepare psiC-BIRC6m1m2 (FIG. 11A).
HEK293T was divided into a 96-well plate such that 5×10^3 cells were allocated to each well, and miR-BART15-3p and a vector for a target test were transfected by using lipofectamine-2000. Forty eight hours after the transfection, a dual luciferase reporter assay (Virology. 412(2), 392-400 (2011)) was performed to normalize the results with reference to firefly luciferase and observe a variation of the renilla luciferase gene expression. The renilla value was not decreased in psiC-BIRC6m1 and psiC-BIRC6m1m2 by, while the renilla value was decreased in psiC-BIRC6m2 as in the case of psiC-BIRC6.

AGS cell strain [1] = test: Measurement of apoptosis (Annexin V staining, FACS); conditions: for Relative Apoptotic cell: mimic 10 nM, 10 uM 5-FU 24 h after transfection, then 48 hours, Annexin V, relative to scrambled control (=1), n=9
In short: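 EBV-negative AGS cells (2×10^5/well) were transfected with 10 nM synthetic miRNA. Twenty-four hours later they received 10 uM 5-FU for 48 h at 37 °C. The apoptotic cell ratio was measured by PE Annexin V staining and FACS.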

3′UTR of TAX1BP1 = test: Dual luciferase reporter assay (psiCHECK) in HEK293T, TAX1BP1 3'UTR; conditions: psiCHECK with TAX1BP1 3′UTR, 48 hours after transfection
Text: as §1, §2

AGS cell strain [2] = test: Cell growth test (CCK-8 assay) after transfection of BART miRNA mimics; conditions: for Relative Cell Growth: relative to scrambled control (=1)
In short: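 EBV-negative AGS gastric cells in RPMI1640 with 10% FBS, seeded 1×10^3 cells/well and transfected with synthetic mature BART miRNA mimics (10 nM; dose series 1, 3, 10, 30 nM) via G-fectin. Growth read by CCK-8 after 72 h (or over time), 2 h at 37 °C, absorbance measured.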

[3] = AGS, mimic 10 nM in combination with 10 uM 5-FU

## BART15-3p: EBV BART miRNA mimic, double stranded RNA; sense SEQ NO: 15, antisense SEQ NO: 16 (sense GUCAGUGGUUUUGUUUCCUUGA; antisense UCAAGGAAACAAAACCACUGAC; chemistry not given here)
TAX1BP1 mRNA
  mRNA level of TAX1BP1: decrease
3′UTR of BIRC6; psiC-BIRC6m1 (point mutation of site 1)
  renilla value: not decreased
3′UTR of BIRC6; psiC-BIRC6m1m2 (both sites mutated)
  renilla value: not decreased
3′UTR of BIRC6; psiC-BIRC6m2 (point mutation of site 2)
  renilla value: decreased
3′UTR of BIRC6; psiCHECK with BIRC6 3′UTR (psiC-BIRC6), 48 hours after transfection, listed as miR-BART15-3p
  renilla value (renilla luciferase, normalized to firefly): decreased
AGS cell strain [1]; [3]
  ratio of early apoptotic cell: increased
  ratio of late apoptotic cell: increased
AGS cell strain [1]; AGS, mimic 10 nM plus 10 uM 5-FU
  degree of apoptosis, combination with 5-FU versus sum of single treatments: synergetic effect
AGS cell strain [1]; AGS, mimic 10 nM treated alone
  ratio of early apoptotic cell: increased
  ratio of late apoptotic cell: increased
AGS cell strain [1]; AGS
  Relative Apoptotic cell: 1.665
AGS cell strain [1]; AGS, listed as 15-3p
  Relative Apoptotic cell: significantly higher
AGS cell strain [1]; mimics transfected to AGS, tumor cell strain not infected with EBV
  effect on cell growth and apoptosis (summary statement): inhibit cell growth and promote apoptosis
3′UTR of TAX1BP1
  renilla value (renilla luciferase, normalized to firefly): decrease
AGS cell strain [2]; 3 nM, 72 hours after transfection
  cell growth lower than that of a scrambled control: 50%
AGS cell strain [2]; 10 nM, 72 hours after transfection
  cell growth: almost no cell growth
AGS cell strain [2]; 30 nM, 72 hours after transfection
  cell growth: almost no cell growth
AGS cell strain [2]; mimic 10 nM, 72 hours after transfection, n=9
  Relative Cell Growth: 0.5676
AGS cell strain [2]; mimic 10 nM, 72 hours after transfection, n=9, listed as miR-BART15-3p
  Relative Cell Growth: inhibited cell growth
AGS cell strain [2]; mimic 10 nM, depending on treatment time, listed as miR-BART15-3p
  cell growth over time: greatly decreased cell growth; also recorded: inhibited cell growth almost entirely
